In patent US20210070748A1, “INHIBITORS OF BRUTONS TYROSINE KINASE” (Pharmacyclics LLC, priority 2015, published 2021):

Key:
SRC = SRC (Homo sapiens, UniProt P12931); assay: Inhibition of a panel of kinases, in vitro HotSpot kinase assay: SRC; type: biochemical; details: D-compounds panel data; 1 μM ATP
Protocol: The degree of inhibition of a panel of kinases is determined using the in vitro HotSpot kinase assay (purified enzymes, ^33P-ATP, an appropriate substrate and 1 μM ATP).

JAK3 = biological target: T1, JAK3 (Homo sapiens, UniProt P52333); assay: Inhibition of a panel of kinases, in vitro HotSpot kinase assay: JAK3; type: biochemical; details: D-compounds panel data; 1 μM ATP; read-out: IC50 JAK3
T1 sequence (P52333 1-1124): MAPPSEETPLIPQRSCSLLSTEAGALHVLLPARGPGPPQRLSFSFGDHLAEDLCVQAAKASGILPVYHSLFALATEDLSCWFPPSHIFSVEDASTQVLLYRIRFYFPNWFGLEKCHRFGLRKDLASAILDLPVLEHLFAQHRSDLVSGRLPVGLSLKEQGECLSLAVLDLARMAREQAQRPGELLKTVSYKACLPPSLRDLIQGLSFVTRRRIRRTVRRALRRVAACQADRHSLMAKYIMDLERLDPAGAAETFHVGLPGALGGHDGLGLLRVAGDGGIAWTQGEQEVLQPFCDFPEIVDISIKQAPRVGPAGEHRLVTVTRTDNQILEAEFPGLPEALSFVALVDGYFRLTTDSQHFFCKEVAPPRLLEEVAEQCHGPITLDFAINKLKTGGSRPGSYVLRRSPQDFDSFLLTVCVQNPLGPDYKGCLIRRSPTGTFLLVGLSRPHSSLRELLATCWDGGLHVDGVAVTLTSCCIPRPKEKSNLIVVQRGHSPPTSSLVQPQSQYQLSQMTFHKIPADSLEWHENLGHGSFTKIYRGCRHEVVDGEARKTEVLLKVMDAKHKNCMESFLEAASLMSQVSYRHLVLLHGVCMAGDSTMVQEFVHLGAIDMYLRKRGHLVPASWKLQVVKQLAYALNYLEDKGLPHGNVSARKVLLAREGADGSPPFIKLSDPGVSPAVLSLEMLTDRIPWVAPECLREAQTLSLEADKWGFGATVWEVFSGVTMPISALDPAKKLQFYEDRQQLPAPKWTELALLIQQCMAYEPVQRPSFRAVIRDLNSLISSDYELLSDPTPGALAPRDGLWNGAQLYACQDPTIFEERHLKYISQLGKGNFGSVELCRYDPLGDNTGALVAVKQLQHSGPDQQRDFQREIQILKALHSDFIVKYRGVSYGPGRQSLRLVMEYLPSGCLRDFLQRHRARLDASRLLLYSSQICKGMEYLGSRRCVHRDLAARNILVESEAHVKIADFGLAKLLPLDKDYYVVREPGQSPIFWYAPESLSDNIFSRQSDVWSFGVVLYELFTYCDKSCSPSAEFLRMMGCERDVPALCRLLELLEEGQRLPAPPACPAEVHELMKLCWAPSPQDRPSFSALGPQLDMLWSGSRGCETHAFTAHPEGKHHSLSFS

Chain of SRC (P12931 whole entry): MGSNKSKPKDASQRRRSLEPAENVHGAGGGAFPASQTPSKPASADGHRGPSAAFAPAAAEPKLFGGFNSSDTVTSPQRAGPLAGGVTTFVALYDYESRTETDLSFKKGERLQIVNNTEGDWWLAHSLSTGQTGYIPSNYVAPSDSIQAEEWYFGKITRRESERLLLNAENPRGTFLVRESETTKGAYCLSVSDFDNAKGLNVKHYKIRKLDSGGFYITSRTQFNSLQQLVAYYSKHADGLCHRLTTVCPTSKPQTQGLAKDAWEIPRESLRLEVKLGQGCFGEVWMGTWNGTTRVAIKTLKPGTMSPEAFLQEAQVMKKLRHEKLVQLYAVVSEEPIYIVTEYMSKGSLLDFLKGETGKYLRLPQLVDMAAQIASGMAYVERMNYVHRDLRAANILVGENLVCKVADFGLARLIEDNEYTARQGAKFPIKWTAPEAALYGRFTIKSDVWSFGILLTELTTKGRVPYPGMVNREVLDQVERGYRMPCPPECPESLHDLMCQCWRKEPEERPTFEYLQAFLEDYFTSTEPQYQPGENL

IC50 (SRC) | IC50 (JAK3) | Structure (SMILES)
10 to 100 nM | 1000 to 10000 nM | C[C@@H]1[C@H](NC(=O)c2ccc(C3CC3)cc2)CCCN1c1cnc(C(N)=O)c(Nc2cnn(C3CCN(C)CC3)c2)n1 [Example D-185, 5-[(2R,3R)-3-(4-cyclopropylbenzamido)-2-methylpiperidin-1-yl]-3-{[1-(1-methylpiperidin-4-yl)-1H-pyrazol-4-yl]amino}pyrazine-2-carboxamide]
100 to 1000 nM | 1000 to 10000 nM | Cn1cc(Nc2nc(N3CCC[C@@H](NC(=O)c4ccc(C5CC5)cc4)C3)nnc2C(N)=O)cn1 [Example D-195, 3-[(3R)-3-(4-cyclopropylbenzamido)piperidin-1-yl]-5-[(1-methyl-1H-pyrazol-4-yl)amino]-1,2,4-triazine-6-carboxamide]
10 to 100 nM | 1000 to 10000 nM | C[C@@H]1[C@H](NC(=O)c2ccc(C(C)(C)C)cc2)CCCN1c1cnc(C(N)=O)c(Nc2ccc(N3CCN(C)CC3)cc2)n1 [Example D-14, 5-[(2R,3R)-3-(4-tert-butylbenzamido)-2-methylpiperidin-1-yl]-3-{[4-(4-methylpiperazin-1-yl)phenyl]amino}pyrazine-2-carboxamide]
10 to 100 nM | 100 to 1000 nM | CN1CCN(c2ccc(Nc3nc(N4CCC[C@@H](n5ccc6cc(C7CC7)cc(F)c6c5=O)C4)cnc3C(N)=O)cc2)CC1 [Example D-174, 5-[(3R)-3-(6-cyclopropyl-8-fluoro-1-oxo-1,2-dihydroisoquinolin-2-yl)piperidin-1-yl]-3-{[4-(4-methylpiperazin-1-yl)phenyl]amino}pyrazine-2-carboxamide]
100 to 1000 nM | > 10000 nM | C[C@@H]1[C@H](NC(=O)c2ccc(C3(C(F)(F)F)CC3)cc2)CCCN1c1cnc(C(N)=O)c(Nc2cnn(C)c2)n1 [Example D-221, 3-[(1-Methyl-1H-pyrazol-4-yl)amino]-5-[(2R,3R)-2-methyl-3-{4-[1-(trifluoromethyl)cyclopropyl]benzamido}piperidin-1-yl]pyrazine-2-carboxamide]
10 to 100 nM | 100 to 1000 nM | C[C@@H]1[C@H](NC(=O)c2ccc(C3(O)CCCC3)cc2)CCCN1c1cnc(C(N)=O)c(Nc2cnn(C)c2)n1 [Example D-212, 5-[(2R,3R)-3-[4-(1-hydroxycyclopentyl)benzamido]-2-methylpiperidin-1-yl]-3-[(1-methyl-1H-pyrazol-4-yl)amino]pyrazine-2-carboxamide]
10 to 100 nM | > 10000 nM | COc1cc(C(=O)N[C@@H]2CCCN(c3cnc(C(N)=O)c(Nc4cnn(C)c4)n3)[C@@H]2C)ccc1C1CC1 [Example D-231, 5-[(2R,3R)-3-(4-cyclopropyl-3-methoxybenzamido)-2-methylpiperidin-1-yl]-3-[(1-methyl-1H-pyrazol-4-yl)amino]pyrazine-2-carboxamide]
10 to 100 nM | 1000 to 10000 nM | C[C@@H]1[C@H](NC(=O)c2cnc(C3CC3)cn2)CCCN1c1cnc(C(N)=O)c(Nc2cnn(C)c2)n1 [Example D-205, 5-[(2R,3R)-3-(5-cyclopropylpyrazine-2-amido)-2-methylpiperidin-1-yl]-3-[(1-methyl-1H-pyrazol-4-yl)amino]pyrazine-2-carboxamide]
10 to 100 nM | 100 to 1000 nM | C[C@@H]1[C@H](NC(=O)c2ccc(C3CC3)cc2)CCCN1c1cnc(C(N)=O)c(Nc2ccc(OC3CCN4CCCC4C3)cc2)n1 (stereo partly drawn) [Example D-211, 5-[(2R,3R)-3-(4-cyclopropylbenzamido)-2-methylpiperidin-1-yl]-3-{[4-(octahydroindolizin-7-yloxy)phenyl]amino}pyrazine-2-carboxamide]
100 to 1000 nM | 100 to 1000 nM | C[C@@H]1[C@H](NC(=O)c2ccc(C3CC3)cc2F)CCCN1c1cnc(C(N)=O)c(Nc2ccc(N3CCN(C)C[C@@H]3C)cc2)n1 [Example D-12, 5-[(2R,3R)-3-(4-cyclopropyl-2-fluorobenzamido)-2-methylpiperidin-1-yl]-3-({4-[(2S)-2,4-dimethylpiperazin-1-yl]phenyl}amino)pyrazine-2-carboxamide]
10 to 100 nM | 100 to 1000 nM | C[C@@H]1[C@H](NC(=O)c2ccc(N(C)CCO)cc2)CCCN1c1cnc(C(N)=O)c(Nc2cnn(C)c2)n1 [Example D-217, 5-[(2R,3R)-3-{4-[(2-hydroxyethyl)(methyl)amino]benzamido}-2-methylpiperidin-1-yl]-3-[(1-methyl-1H-pyrazol-4-yl)amino]pyrazine-2-carboxamide]
100 to 1000 nM | 1000 to 10000 nM | Cn1cc(Nc2nc(N3CCC[C@@H](NC(=O)c4ccc(C5CC5)cc4)C3)cnc2C(N)=O)cn1 [Example D-191, 5-[(3R)-3-(4-cyclopropylbenzamido)piperidin-1-yl]-3-[(1-methyl-1H-pyrazol-4-yl)amino]pyrazine-2-carboxamide]
100 to 1000 nM | 1000 to 10000 nM | CN1CCN([C@@H]2CCCN(c3cnc(C(N)=O)c(Nc4cnn(C)c4)n3)C2)C1=O [Example D-209, 3-[(1-methyl-1H-pyrazol-4-yl)amino]-5-[(3R)-3-(3-methyl-2-oxoimidazolidin-1-yl)piperidin-1-yl]pyrazine-2-carboxamide]
10 to 100 nM | 100 to 1000 nM | C[C@@H]1[C@H](NC(=O)c2ccc(C3CC3)cc2F)CCCN1c1cnc(C(N)=O)c(Nc2cc(CN3CCCCC3)ns2)n1 [Example D-176, 5-[(2R,3R)-3-(4-cyclopropyl-2-fluorobenzamido)-2-methylpiperidin-1-yl]-3-{[3-(piperidin-1-ylmethyl)-1,2-thiazol-5-yl]amino}pyrazine-2-carboxamide]
10 to 100 nM | 1000 to 10000 nM | C[C@@H]1[C@H](NC(=O)c2ccc(C3CC3)nc2)CCCN1c1cnc(C(N)=O)c(Nc2cnn(C)c2)n1 [Example D-18, 5-[(2R,3R)-3-(6-cyclopropylpyridine-3-amido)-2-methylpiperidin-1-yl]-3-[(1-methyl-1H-pyrazol-4-yl)amino]pyrazine-2-carboxamide]
100 to 1000 nM | 1000 to 10000 nM | C[C@@H]1[C@H](NC(=O)c2ccc(C3CC3)cc2)CCCN1c1cnc(C(N)=O)c(Nc2cnn(CCN(C)C)c2)n1 [Example D-187, 5-[(2R,3R)-3-(4-cyclopropylbenzamido)-2-methylpiperidin-1-yl]-3-({1-[2-(dimethylamino)ethyl]-1H-pyrazol-4-yl}amino)pyrazine-2-carboxamide]
10 to 100 nM | 100 to 1000 nM | C[C@@H]1[C@H](NC(=O)c2ccc3c(c2)OC(F)(F)O3)CCCN1c1cnc(C(N)=O)c(Nc2cnn(C)c2)n1 [Example D-216, 5-[(2R,3R)-3-(2,2-difluoro-2H-1,3-benzodioxole-5-amido)-2-methylpiperidin-1-yl]-3-[(1-methyl-1H-pyrazol-4-yl)amino]pyrazine-2-carboxamide]
100 to 1000 nM | 100 to 1000 nM | Cc1cc(Nc2nc(N3CCC[C@H](c4ncc(-c5ccccc5)[nH]4)C3)cnc2C(N)=O)sn1 [Example D-172, 3-[(3-methyl-1,2-thiazol-5-yl)amino]-5-[(3S)-3-(5-phenyl-1H-imidazol-2-yl)piperidin-1-yl]pyrazine-2-carboxamide]
1000 to 10000 nM | > 10000 nM | Cn1cc(Nc2nc(N3CCC[C@@H](n4ccc5cc(C6CC6)ccc5c4=O)C3)cnc2C(N)=O)cn1 [Example D-184, 5-[(3R)-3-(6-cyclopropyl-1-oxo-1,2-dihydroisoquinolin-2-yl)piperidin-1-yl]-3-[(1-methyl-1H-pyrazol-4-yl)amino]pyrazine-2-carboxamide]

Structure (SMILES) | IC50 (SRC) | IC50 (JAK3)
CC1(c2ccc(Nc3nc(N4CCC[C@@H](n5ccc6cc(C7CC7)ccc6c5=O)C4)cnc3C(N)=O)cc2)CCN(C2CCCC2)CC1 [Example D-177, 3-{[4-(1-cyclopentyl-4-methylpiperidin-4-yl)phenyl]amino}-5-[(3R)-3-(6-cyclopropyl-1-oxo-1,2-dihydroisoquinolin-2-yl)piperidin-1-yl]pyrazine-2-carboxamide] | 10 to 100 nM | 100 to 1000 nM
Cn1cc(Nc2nc(N3C4CCC(NC(=O)c5ccc(C6CC6)cc5)C3CC4)cnc2C(N)=O)cn1 (single isomer, unassigned) [Example D-199, 5-[2-(4-cyclopropylbenzamido)-8-azabicyclo[3.2.1]octan-8-yl]-3-[(1-methyl-1H-pyrazol-4-yl)amino]pyrazine-2-carboxamide] | 1000 to 10000 nM | 1000 to 10000 nM
